Publication PMC9459403, “New inhibitors of cathepsin V impair tumor cell proliferation and elastin degradation and increase immune cell cytotoxicity” (Computational and Structural Biotechnology Journal, 2022)
“Also recorded” adds a separate entry of the source. Marks after values point to notes of the source that are not given here. Where a SMILES comes first, the peptide text is derived from it. [ ]: non-standard residue; d: D form. The star is where a group is joined. Sta = CC(C)C[C@H](N)[C@@H](O)CC(=O)O; Isovaleryl = CC(C)CC(=O)*

Columns and labels:
MCF7 cells = experiment: Proliferation assay (CFSE-labeled cells, flow cytometry); format: cell-based, human; conditions: 72 h; E-64d 10 μM, pepstatin 20 μM, LHVS 10 nM, CLIK-148 1 μM
Protocol: To assess the effect of cathepsin V inhibitors on cell proliferation, MCF7 cells were fluorescently labeled with carboxyfluorescein succinimidyl ester (CFSE; ImmunoChemistry Technologies, Bloomington, MN, USA) in PBS for 15 min at room temperature according to the manufacturer’s instructions. Cells were washed with PBS, resuspended in complete medium, seeded (at 4 × 10^4 cells/well) into 24-well plates, and allowed to adhere overnight. Cells were then treated with the following inhibitors: compound 7 (10 μM), E-64d (10 μM), CLIK-148 (1 μM), LHVS (10 nM), pepstatin (20 μM), their combinations, or DMSO (0.1 %) in 500 μL of medium for 72 h at 37 °C. To prepare cells for flow cytometry, cells were detached and transferred to round-bottomed polystyrene tubes and washed with PBS. Before measurement, 7-aminoactinomycin D (7-AAD; ImmunoChemistry Technologies, Bloomington, MN, USA) was added according to the manufacturer’s instructions to exclude dead cells. Therefore, the green fluorescence arising from CFSE was monitored only for viable cells. The measurement was performed using a FACSCalibur instrument (BD Biosciences, San Jose, CA, USA).

Cathepsin V [1] = molecular target: T1, Cathepsin V (Homo sapiens, UniProt O60911); experiment: Determination of Ki values and mode of inhibition; format: biochemical; conditions: for fold lower inhibition constant for cathepsin V than cathepsin L: selectivity cathepsin V vs cathepsin L
T1 construct: made in house; host or cells: Pichia pastoris
T1 sequence (O60911 114-334): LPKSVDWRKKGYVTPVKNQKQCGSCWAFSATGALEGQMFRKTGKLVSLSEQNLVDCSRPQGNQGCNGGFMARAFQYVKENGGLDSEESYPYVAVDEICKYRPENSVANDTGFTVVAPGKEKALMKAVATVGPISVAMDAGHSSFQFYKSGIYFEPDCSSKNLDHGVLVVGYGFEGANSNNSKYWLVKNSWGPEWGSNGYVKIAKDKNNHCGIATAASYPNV
Protocol: (§1) Human recombinant cathepsin V was expressed in Pichia Pastoris, and human recombinant cathepsin L was expressed in Escherichia coli, as reported, [51]. To determine the activities of cathepsins V and L, 100 mM acetate buffer (pH 5.5), containing 0.1 % PEG 8000 (Sigma-Aldrich, St. Louis, MO, USA), 5 mM cysteine, and 1.5 mM EDTA was used. Prior to the assay, the enzyme was activated in the assay buffer for 5 min at 37 °C.
(§2) Inhibition constants were calculated from reaction velocities measured at three substrate concentrations (0.5, 1, and 4 μM) in the presence of inhibitors at seven concentrations (0, 20, 40, 60, 80, 100, and 200 µM). The reaction was initiated by adding 90 μL of enzyme at final concentrations of 2.5 ng/mL and 0.02 nM for cathepsins V and L, respectively, to the wells of a black microtiter plate containing 5 μL of substrate and 5 μL of inhibitor. To evaluate cathepsin V and L activity, the substrate Z-Phe-Arg-AMC was used. The formation of the fluorescent degradation products was monitored as described above. All assay mixtures contained 5 % (v/v) DMSO. All measurements were performed in duplicates and repeated at least twice. The SigmaPlot® 12, Enzyme Kinetics Module™ 1.3 was used to calculate Ki values.

[2] = molecular target: T2, human recombinant cathepsin L (Homo sapiens, UniProt P07711); experiment: Determination of Ki values and mode of inhibition; format: biochemical
T2 construct: made in house; host or cells: Escherichia coli
T2 sequence (P07711 114-333): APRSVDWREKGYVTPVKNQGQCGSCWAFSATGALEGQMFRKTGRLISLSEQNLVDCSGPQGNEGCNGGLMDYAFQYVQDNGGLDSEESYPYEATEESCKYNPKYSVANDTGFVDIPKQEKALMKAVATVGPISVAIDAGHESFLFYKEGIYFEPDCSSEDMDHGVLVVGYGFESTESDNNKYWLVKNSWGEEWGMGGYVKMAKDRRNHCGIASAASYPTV
Protocol: as §1, §2

Cathepsin V [3] = molecular target: T1, Cathepsin V; experiment: Determination of relative inhibition, substrate Z-Phe-Arg-AMC; format: biochemical; conditions: inhibitor 50 μM; substrate 2 μM; mean ± SD (n = 2); read-out: Cathepsin V Ri (%) relative inhibition
Protocol: as §1
(§3) The effect of the inhibitors on cathepsin V and L activity was determined using the substrate Z-Phe-Arg-AMC (Bachem, Bubendorf, Switzerland). The reaction was initiated by adding 90 μL of the activated enzyme (final concentration 2.5 ng/mL and 0.02 nM for cathepsins V and L, respectively) to the wells of a black microtiter plate containing 5 μL of substrate (with a final concentration 2 μM) and 5 μL of inhibitor (with a final concentration of 50 μM). The formation of fluorescent degradation products during the reaction was monitored continuously at 460 nm ± 10 nm with excitation at 380 nm ± 20 nm at 37 °C on a Tecan Infinite M1000 (Mannedorf, Switzerland) spectrofluorometer. All assay mixtures contained 5 % (v/v) DMSO. To prevent false-positive inhibition due to the formation of compound aggregates, 0.01 % Triton X-100 was used. All measurements were performed in triplicate and repeated at least twice. Relative inhibition was calculated using the following equation: relative inhibition (%) = 100(1- vi/vo), where vi and vo denote the reaction velocities in the presence and absence of the inhibitor, respectively.

[4] = molecular target: T2, human recombinant cathepsin L; experiment: as above; format: biochemical; conditions: inhibitor 50 μM; substrate 2 μM; mean ± SD (n = 2); read-out: Cathepsin L Ri (%) relative inhibition
Protocol: as §1, §3

Cathepsin V [5] = molecular target: T1, Cathepsin V; experiment: Determination of binding reversibility (dilution method); format: biochemical; conditions: inhibitor 100 μM, cathepsin V 500 ng/ml
Protocol: Binding reversibility was determined according to the dilution method, which measures the recovery of enzymatic activity after rapid dilution of the enzyme-inhibitor complex. Cathepsin V (500 ng/ml) was incubated in the assay buffer with the inhibitor (100 μM). Half of the reaction mixture was immediately diluted 100-fold with the assay buffer and added to the wells of a black microplate containing 5 μL of substrate (at a final concentration of 2 μM), and the activity was measured. The other half of the reaction mixture was incubated for 2 h before it was diluted 100-fold, and then the activity was measured. The assay was performed in triplicates and repeated at least two times.

[6] = system: U-937-derived macrophages; experiment: Intracellular elastin-FITC degradation; format: cell-based, human; conditions: 24 h; for decrease of elastin-FITC degradation: 10 μM, vs DMSO
Protocol: To evaluate the effect of the inhibitors on the elastolytic activity of cathepsin V, we assessed the intracellular degradation of elastin-FITC, a soluble bovine neck ligament elastin that is heavily labeled with FITC such that the fluorescence of the conjugate is quenched. Upon proteolysis, fluorescence is recovered and can be detected. U-937 cells, differentiated into macrophage-like cells, were seeded (at 1 × 10^5 cells/well) into 24-well plates with 500 μL of medium supplemented with 50 nM PMA. Inhibitors or DMSO (0.1 %) and elastin-FITC (10 μg/mL; AnaSpec, Fermont, CA, USA) were added to the medium and incubated for 24 h at 37 °C. Cells were detached and washed with PBS, and propidium iodide (BD Bioscience) was added to exclude dead cells. Therefore, green fluorescence arising from elastin-FITC degradation was monitored only for viable cells. The measurement was performed using a FACSCalibur instrument (BD Biosciences).

Structure (SMILES)	mode of inhibition of cathepsin V (Cathepsin V [1])	Cathepsin V Ki′ (µM) (Cathepsin V [1]; mean ± SD (n = 2))	mode of inhibition of cathepsin L [2]	Ki ([2]; mean ± SD (n = 2)) [µM]	inhibition at 50 µM (Cathepsin V [3]) [%]	inhibition at 50 µM [4] [%]	binding reversibility: cathepsin V activity after 2 h incubation and 100-fold rapid dilution (Cathepsin V [5])	Ki (Cathepsin V [1]; mean ± SD (n = 2)) [µM]	also measured
CC(C)CC(=O)N[C@H](C(=O)N[C@H](C(=O)N[C@@H](CC(C)C)[C@@H](O)CC(=O)N[C@@H](C)C(=O)N[C@@H](CC(C)C)[C@@H](O)CC(=O)O)C(C)C)C(C)C [pepstatin] (Isovaleryl-VV[Sta]A[Sta]-OH)									effect on cell proliferation (relative CFSE fluorescence intensity vs DMSO) (MCF7 cells): no effects on cell proliferation
O=C(c1ccccc1OCc1ccccc1)C1OC1c1csc(-c2ccccc2)n1 (centres unmarked) [Compound 40, (2-(Benzyloxy)phenyl)(3-(2-phenylthiazol-4-yl)oxiran-2-yl)methanone]	uncompetitive	21.2 ± 2.0^f µM	competitive	454 ± 69.1	27.6 ± 8.7	12.4 ± 0.7	reversible; also recorded: restored		Cathepsin V Ki′ (Cathepsin V [1]; mean ± SD (n = 2)): 21.2 ± 2.0 µM; fold lower inhibition constant for cathepsin V than cathepsin L (Cathepsin V [1]): 21 fold
Cc1cc(OCc2ccccc2)c(C(=O)C2OC2c2cc3ccccc3o2)cc1C (centres unmarked) [Compound 27, (3-(Benzofuran-2-yl)oxiran-2-yl)(2-(benzyloxy)-4,5-dimethylphenyl)methanone]	noncompetitive	68.3 ± 4.6 ^g µM	competitive	249 ± 29.8	> 20	22.6 ± 5.1	tight-binding or irreversible; also recorded: only partially restored	68.3 ± 4.6	decrease of elastin-FITC degradation [6]: 7.1 ± 2.7%; fold lower inhibition constant for cathepsin V than cathepsin L (Cathepsin V [1]): more than 3 fold
CC(C)C[C@H](NC(=O)N1CCOCC1)C(=O)N[C@H](/C=C/S(=O)(=O)c1ccccc1)CCc1ccccc1 [LHVS, morpholinurea-leucine-homophenylalanine-vinylsulfone-phenyl, reference compound]									effect on degradation of elastin-FITC compared to control cells ([6]; CLIK-148 1 μM, LHVS 10 nM): did not decrease; effect on cell proliferation (relative CFSE fluorescence intensity vs DMSO) (MCF7 cells): no effects on cell proliferation
CC(C)C[C@H](NC(=O)[C@H]1O[C@@H]1C(=O)O)C(=O)NCCCCN=C(N)N [Compound E-64, reference compound]							remained inhibited		
CC(=O)c1cccc(NC(=O)c2cnc3sccn3c2=O)c1 [Compound 4, N-(3-acetylphenyl)-5-oxo-5H-thiazolo[3,2-a]pyrimidine-6-carboxamide]	competitive		competitive	84.3 ± 4	> 20	23.5 ± 2.2	reversible inhibition	352 ± 78.6	
O=C(NCc1ccc(F)cc1)NCC1CCN(C(=O)Oc2ccccc2)CC1 [Compound 41]		612.5 ± 23.9^e µM			17.7 ± 6.1	4.2 ± 0.9		612 ± 23.9	Cathepsin L Ki (µM) ([2]; mean ± SD (n = 2)): n.i.^g; Cathepsin L Ki′ (µM) ([2]; mean ± SD (n = 2)): n.i.^g
CCCNC(=O)[C@H]1O[C@@H]1C(=O)N[C@H](C(=O)N1CCC[C@@H]1C(=O)OC)[C@@H](C)CC [Compound 25, Methyl ((2S,3S)-3-(propylcarbamoyl)oxirane-2-carbonyl)-L-isoleucyl-D-prolinate]	competitive		competitive	9.9 ± 0.9		83.7 ± 1	irreversible; also recorded: completely blocked	8 ± 0.02	decrease of elastin-FITC degradation [6]: 12.6 ± 4.8%
O=C(NCC1CCN(C(=O)Oc2ccccc2)CC1)c1ccccc1 [Compound 48]				1190 ± 357	20.4 ± 14.5	5.7 ± 3.6		1190 ± 468	
O=C(Nc1nc2c(s1)CN(Cc1ccccc1)CC2)c1cccc2ccccc12 [Compound 5, N-(5-benzyl-4,5,6,7-tetrahydrothiazolo[5,4-c]pyridin-2-yl)-1-naphthamide]			uncompetitive		-5.8 ± 7	30.3 ± 5.5	reversible inhibition; also recorded: restored		Cathepsin V Ki (µM) (Cathepsin V [1]; mean ± SD (n = 2)): no inhibition; Cathepsin L Ki ([2]; mean ± SD (n = 2)): 11.2 ± 0.1 µM; Cathepsin L Ki′ ([2]; mean ± SD (n = 2)): 11.2 ± 0.1 µM; Cathepsin L Ki′ (µM) ([2]; mean ± SD (n = 2)): 11.2 ± 0.1^e µM
O=C(NCC1CCN(C(=O)Oc2ccccc2)CC1)NC(c1ccccc1)c1ccccc1 [Compound 42, Phenyl 4-((3-benzhydrylureido)methyl)piperidine-1-carboxylate]	noncompetitive	155.8 ± 3.4^e µM	noncompetitive	319 ± 28.6	21.6 ± 4.6	3.5 ± 3.1	reversible; also recorded: restored	156 ± 3.4	fold lower inhibition constant for cathepsin V than cathepsin L (Cathepsin V [1]): more than 2 fold; Cathepsin L Ki′ (µM) ([2]; mean ± SD (n = 2)): 319.2 ± 28.6^e µM
